Results: patent publication US12180207B2 (ARRAY BIOPHARMA INC., priority 2018, dated 2024)

Assays:
[1] = target: HEK-293 cells transfected with dox-inducible human wild type FGFR3 (Homo sapiens (Human), UniProt P22607); test: FGFR3 pFGFR cell assay (ELISA); format: cell-based; conditions: HEK-293 dox-inducible FGFR3, 1 hour compound, 100 ng/ml FGF-acidic
Outline: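 Doxycycline-induced (1 μg/ml) HEK-293 cells expressing wild-type human FGFR3, treated 1 h with compound (1:3 series, top final 5 μM), then stimulated 5 min with 100 ng/ml FGF-acidic. Phospho-FGFR3 measured by ELISA (total FGFR3 capture, phosphotyrosine detection, OD 450 nm); IC50 from 4-parameter fit of POC values.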

[2] = target: FGFR1 (SEQ ID NO: 1, amino acids 458-765) (Homo sapiens (Human), UniProt P11362); test: LC/MS FGFR1 kobs assay (covalent protein modification); format: binding; conditions: 500 nM FGFR1, 3 μM compound
FGFR1 (SEQ ID NO: 1, amino acids 458-765), sequence (P11362 458-765): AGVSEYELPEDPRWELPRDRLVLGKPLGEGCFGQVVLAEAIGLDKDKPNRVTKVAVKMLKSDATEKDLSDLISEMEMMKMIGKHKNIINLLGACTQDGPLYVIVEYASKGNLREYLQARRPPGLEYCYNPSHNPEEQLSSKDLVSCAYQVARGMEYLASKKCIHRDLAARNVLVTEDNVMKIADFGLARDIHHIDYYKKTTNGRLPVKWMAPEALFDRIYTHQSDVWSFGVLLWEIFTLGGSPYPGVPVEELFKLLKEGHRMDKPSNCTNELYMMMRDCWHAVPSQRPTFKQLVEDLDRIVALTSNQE
Outline: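 Covalent labeling of FGFR1 kinase domain (aa 458-765) tracked over time by intact-protein LC/MS after formic acid quench. kobs derived by fitting DMSO-normalized percent unmodified FGFR1 to an exponential decay model.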

[3] = target: dephosphorylated FGFR1 (SEQ ID NO: 1, amino acids 458 to 765) (Homo sapiens (Human), UniProt P11362); test: FGFR enzyme binding assay (HTRF tracer displacement), FGFR1; conditions: 5 nM dephosphorylated FGFR1, average of multiple determinations if made
dephosphorylated FGFR1 (SEQ ID NO: 1, amino acids 458 to 765), sequence (P11362 458-765): as above
Outline: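 Compounds were tested for displacement of a tracer from human FGFR kinase in a time-resolved FRET binding format. After 60 minutes at 22° C, signal was read at two wavelengths and converted to percent of control, normalised between untreated wells and 1 μM reference inhibitor.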

[4] = target: recombinant human FGFR3 (amino acids R397-T806) (Homo sapiens (Human), UniProt P22607); test: FGFR3 enzyme activity assay (LanthaScreen TR-FRET); format: biochemical; conditions: 25 μM ATP, 10 min incubation at 22° C., average of multiple determinations if made, read-out: FGFR3 Enz FRET IC50
recombinant human FGFR3 (amino acids R397-T806), sequence (P22607 397-806): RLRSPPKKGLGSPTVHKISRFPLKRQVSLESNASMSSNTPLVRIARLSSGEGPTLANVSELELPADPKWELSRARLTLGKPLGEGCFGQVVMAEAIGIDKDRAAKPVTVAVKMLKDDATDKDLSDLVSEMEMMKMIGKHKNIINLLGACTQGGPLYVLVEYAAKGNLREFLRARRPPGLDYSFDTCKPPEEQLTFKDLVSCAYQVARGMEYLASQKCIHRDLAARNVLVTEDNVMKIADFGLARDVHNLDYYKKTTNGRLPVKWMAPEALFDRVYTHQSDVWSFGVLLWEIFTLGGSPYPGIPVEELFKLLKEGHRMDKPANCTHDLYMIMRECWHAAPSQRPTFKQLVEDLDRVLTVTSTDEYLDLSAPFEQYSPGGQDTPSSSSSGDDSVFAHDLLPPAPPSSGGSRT
Outline: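 GST-HIS6-tagged human FGFR3 (R397-T806) was reacted with 100 nM Alexa Fluor 647-Poly-GT substrate and 25 μM ATP plus compound in HEPES/MgCl2/Triton buffer, pH 7.5, 2% DMSO, for 10 min at 22 °C.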

dephosphorylated FGFR2 = dephosphorylated FGFR2 (Homo sapiens (Human), UniProt P21802); test: FGFR enzyme binding assay (HTRF tracer displacement), FGFR2; conditions: 5 nM dephosphorylated FGFR2, average of multiple determinations if made
dephosphorylated FGFR2, sequence (P21802 22-821): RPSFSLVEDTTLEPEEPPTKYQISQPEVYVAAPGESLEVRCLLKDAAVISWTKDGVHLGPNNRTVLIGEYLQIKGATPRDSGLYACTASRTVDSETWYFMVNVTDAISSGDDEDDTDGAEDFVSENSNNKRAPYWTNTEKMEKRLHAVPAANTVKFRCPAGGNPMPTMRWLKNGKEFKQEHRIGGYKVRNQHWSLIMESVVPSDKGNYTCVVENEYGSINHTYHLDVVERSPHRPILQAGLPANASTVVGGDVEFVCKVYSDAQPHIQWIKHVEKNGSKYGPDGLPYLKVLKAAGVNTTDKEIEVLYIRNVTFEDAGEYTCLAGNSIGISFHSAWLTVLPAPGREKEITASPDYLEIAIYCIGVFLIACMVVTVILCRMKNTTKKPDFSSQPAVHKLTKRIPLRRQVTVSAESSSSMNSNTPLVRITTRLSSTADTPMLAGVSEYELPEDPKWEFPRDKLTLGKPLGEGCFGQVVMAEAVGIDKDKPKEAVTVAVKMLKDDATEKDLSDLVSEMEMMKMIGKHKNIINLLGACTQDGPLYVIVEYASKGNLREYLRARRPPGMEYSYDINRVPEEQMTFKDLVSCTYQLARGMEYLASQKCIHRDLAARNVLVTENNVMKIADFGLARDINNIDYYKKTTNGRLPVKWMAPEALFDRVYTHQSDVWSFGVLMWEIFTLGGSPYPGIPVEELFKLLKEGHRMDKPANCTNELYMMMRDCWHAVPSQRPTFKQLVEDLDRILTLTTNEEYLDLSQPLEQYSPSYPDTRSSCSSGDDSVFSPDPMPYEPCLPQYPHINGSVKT
Method: The potency of compounds inhibiting human isoforms of FGFR kinase was determined using Life Technologies' Homogeneous Time Resolved Fluorescence (HTRF)-based binding assay technology. […] After a 60 minute incubation at 22° C., the extent of tracer displacement was determined using a PerkinElmer EnVision multimode plate reader via HTRF dual wavelength detection, and the percent of control (POC) was calculated using a ratiometric emission factor. One hundred POC was determined using no test compound, and 0 POC was determined in the presence of 1 μM of an appropriate control inhibitor.

[5] = target: recombinant human FGFR2 cytoplasmic domain (amino acids 403-822) (Homo sapiens (Human), UniProt P21802); test: FGFR2 enzyme activity assay (LanthaScreen TR-FRET); format: biochemical; conditions: 15 μM ATP, 20 min incubation at 22° C., average of multiple determinations if made, read-out: FGFR2 Enz FRET IC50
recombinant human FGFR2 cytoplasmic domain (amino acids 403-822), sequence (P21802 402-821): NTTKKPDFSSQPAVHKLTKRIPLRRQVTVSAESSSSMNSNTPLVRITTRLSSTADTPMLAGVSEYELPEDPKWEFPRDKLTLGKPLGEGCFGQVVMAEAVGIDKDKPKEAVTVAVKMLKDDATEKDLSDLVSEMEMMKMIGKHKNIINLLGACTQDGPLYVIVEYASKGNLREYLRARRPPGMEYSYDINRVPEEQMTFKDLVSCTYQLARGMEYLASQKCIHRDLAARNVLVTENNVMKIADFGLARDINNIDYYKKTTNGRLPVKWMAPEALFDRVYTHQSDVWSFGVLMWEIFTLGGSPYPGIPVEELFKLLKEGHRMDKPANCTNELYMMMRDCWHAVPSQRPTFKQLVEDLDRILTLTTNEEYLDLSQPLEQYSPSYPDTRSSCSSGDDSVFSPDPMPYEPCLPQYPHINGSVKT
Outline: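 His-tagged FGFR2 cytoplasmic domain ([…]) with 100 nM Alexa Fluor 647-poly-GT peptide and 15 μM ATP in HEPES/MgCl2/Triton buffer, pH 7.5, 2% DMSO, 20 min at 22 °C. EDTA-quenched, Eu-PY20 antibody added, TR-FRET read after 60 min.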

HEK-293 cells transfected with dox-inducible human wild type FGFR3, sequence (P22607 23-806): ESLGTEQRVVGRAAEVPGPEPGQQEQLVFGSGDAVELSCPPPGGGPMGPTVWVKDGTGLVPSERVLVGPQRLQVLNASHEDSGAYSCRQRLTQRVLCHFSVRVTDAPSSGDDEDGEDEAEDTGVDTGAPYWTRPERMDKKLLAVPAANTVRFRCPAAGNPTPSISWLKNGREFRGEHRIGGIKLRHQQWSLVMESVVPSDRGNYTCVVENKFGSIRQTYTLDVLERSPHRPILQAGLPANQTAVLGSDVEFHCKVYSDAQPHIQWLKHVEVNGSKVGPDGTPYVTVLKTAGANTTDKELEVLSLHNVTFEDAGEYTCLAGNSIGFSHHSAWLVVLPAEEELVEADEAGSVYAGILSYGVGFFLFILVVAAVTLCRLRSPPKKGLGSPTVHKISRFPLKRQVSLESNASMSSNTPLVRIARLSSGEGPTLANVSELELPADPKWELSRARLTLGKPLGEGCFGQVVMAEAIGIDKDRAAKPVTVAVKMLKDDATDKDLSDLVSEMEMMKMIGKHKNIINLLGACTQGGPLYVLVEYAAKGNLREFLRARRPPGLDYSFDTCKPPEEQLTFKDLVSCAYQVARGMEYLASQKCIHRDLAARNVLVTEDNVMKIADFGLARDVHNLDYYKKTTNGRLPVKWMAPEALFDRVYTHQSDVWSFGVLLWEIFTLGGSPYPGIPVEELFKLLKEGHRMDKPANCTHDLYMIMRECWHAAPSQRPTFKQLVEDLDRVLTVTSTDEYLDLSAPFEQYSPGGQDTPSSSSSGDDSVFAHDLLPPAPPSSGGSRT

Compound	IC50 [1]	FGFR1 Enz kobs [2]	IC50 [3]	IC50 [4]	IC50 (dephosphorylated FGFR2)	IC50 [5]
C=CC(=O)N1CC(F)(C(=O)N2CCC(n3cc(-c4cc(OC)c5c(Cl)cnn5c4)cn3)CC2)C1 [Example 121, 1-(3-(4-(4-(3-chloro-4-methoxypyrazolo[1,5-a]pyridin-6-yl)-1H-pyrazol-1-yl)piperidine-1-carbonyl)-3-fluoroazetidin-1-yl)prop-2-en-1-one]	31 nM	0.00369 min⁻¹	114 nM	9 nM	12 nM	13 nM
COc1cc(-c2c(C)nn(C3CCN(C(=O)C4(F)CN(C(=O)/C=C/CN(C)C)C4)CC3)c2C)cn2ncc(C#N)c12 [Example 161, (E)-6-(1-(1-(1-(4-(dimethylamino)but-2-enoyl)-3-fluoroazetidine-3-carbonyl)piperidin-4-yl)-3,5-dimethyl-1H-pyrazol-4-yl)-4-methoxypyrazolo [1,5-a]pyridine-3-carbonitrile]		0.00744 min⁻¹	589 nM	20 nM	44 nM	31 nM
CCc1c(-c2cc(OC)c3c(C#N)cnn3c2)cnn1C1CCN(C(=O)C2(F)CN(C(=O)/C=C/CN(C)C)C2)CC1 [Example 162, (E)-6-(1-(1-(1-(4-(dimethylamino)but-2-enoyl)-3-fluoroazetidine-3-carbonyl)piperidin-4-yl)-5-ethyl-1H-pyrazol-4-yl)-4-methoxypyrazolo [1,5-a]pyridine-3-carbonitrile]		0.00455 min⁻¹	1720 nM	99 nM	462 nM	69 nM
COc1cc(-c2nn(C3CCN(C(=O)C4(F)CN(C(=O)/C=C/CN(C)C)C4)CC3)nc2C)cn2ncc(C#N)c12 [Example 163, (E)-6-(2-(1-(1-(4-(dimethylamino)but-2-enoyl)-3-fluoroazetidine-3-carbonyl)piperidin-4-yl)-5-methyl-2H-1,2,3-triazol-4-yl)-4-methoxypyrazolo [1,5-a]pyridine-3-carbonitrile]		0.00486 min⁻¹	1140 nM	229 nM	125 nM	1170 nM
COc1cc(-c2nnn(C3CCN(C(=O)C4(F)CN(C(=O)/C=C/CN(C)C)C4)CC3)c2C)cn2ncc(C#N)c12 [Example 164, (E)-6-(1-(1-(1-(4-(dimethylamino)but-2-enoyl)-3-fluoroazetidine-3-carbonyl)piperidin-4-yl)-5-methyl-1H-1,2,3-triazol-4-yl)-4-methoxypyrazolo [1,5-a]pyridine-3-carbonitrile]		0.00713 min⁻¹	350 nM	8 nM	14 nM	15 nM
COc1cc(-c2ccc(N3CCN(C(=O)C4(F)CN(C(=O)/C=C/CN(C)C)C4)CC3)nc2C)cn2ncc(C#N)c12 [Example 168, (E)-6-(6-(4-(1-(4-(dimethylamino)but-2-enoyl)-3-fluoroazetidine-3-carbonyl)piperazin-1-yl)-2-methylpyridin-3-yl)-4-methoxypyrazolo [1,5-a]pyridine-3-carbonitrile]		0.00847 min⁻¹	608 nM	72 nM	219 nM	50 nM
COc1cc(-c2cnn(C3CCN(C(=O)C4(F)CN(C(=O)/C=C/CN(C)C)C4)CC3)c2C)cn2ncc(Cl)c12 [Example 170, (E)-1-(3-(4-(4-(3-chloro-4-methoxypyrazolo [1,5-a]pyridin-6-yl)-5-methyl-1H-pyrazol-1-yl)piperidine-1-carbonyl)-3-fluoroazetidin-1-yl)-4-(dimethylamino)but-2-en-1-one]		0.00774 min⁻¹	488 nM	17 nM	22 nM	239 nM
COc1cc(-c2cnn(C3CCN(C(=O)C4(OC)CN(C(=O)/C=C/CN(C)C)C4)CC3)c2C)cn2ncc(Cl)c12 [Example 171, (E)-1-(3-(4-(4-(3-chloro-4-methoxypyrazolo [1,5-a]pyridin-6-yl)-5-methyl-1H-pyrazol-1-yl)piperidine-1-carbonyl)-3-methoxyazetidin-1-yl)-4-(dimethylamino)but-2-en-1-one]		0.00471 min⁻¹	336 nM	24 nM	41 nM	19 nM
C=CC(=O)N1CC(O)(C(=O)N2CCC(n3ncc(-c4cc(OC)c5c(Cl)cnn5c4)c3C)CC2)C1 [Example 172, 1-(3-(4-(4-(3-chloro-4-methoxypyrazolo [1,5-a]pyridin-6-yl)-5-methyl-1H-pyrazol-1-yl)piperidine-1-carbonyl)-3-hydroxyazetidin-1-yl)prop-2-en-1-one]		0.00191 min⁻¹	922 nM	101 nM	125 nM	454 nM
COc1cc(-c2cnn(C3CCN(CC4(OC)CN(C(=O)/C=C/CN(C)C)C4)CC3)c2C)cn2ncc(Cl)c12 [Example 173, (E)-1-(3-((4-(4-(3-chloro-4-methoxypyrazolo [1,5-a]pyridin-6-yl)-5-methyl-1H-pyrazol-1-yl)piperidin-1-yl)methyl)-3-methoxyazetidin-1-yl)-4-(dimethylamino)but-2-en-1-one]		0.00434 min⁻¹	359 nM	41 nM	45 nM	28 nM
COc1cc(-c2cnn(C3CCN(C(=O)C4CN(C(=O)C#CCO)C4)CC3)c2)cn2ncc(C#N)c12 [Example 179, 6-(1-(1-(1-(4-hydroxybut-2-ynoyl)azetidine-3-carbonyl)piperidin-4-yl)-1H-pyrazol-4-yl)-4-methoxypyrazolo[1,5-a]pyridine-3-carbonitrile]		0.01248 min⁻¹	22 nM	3 nM	6 nM	3 nM
COc1cc(-c2cnn(C3CCN(C(=O)C4CN(C(=O)/C=C/CCl)C4)CC3)c2)cn2ncc(C#N)c12 [Example 181, (E)-6-(1-(1-(1-(4-chlorobut-2-enoyl)azetidine-3-carbonyl)piperidin-4-yl)-1H-pyrazol-4-yl)-4-methoxypyrazolo[1,5-a]pyridine-3-carbonitrile]		0.00249 min⁻¹	32 nM	2 nM	12 nM	2 nM
COc1cc(-c2cnn(C3CCN(C(=O)C4CN(C(=O)/C=C/CN5CC[C@H](F)C5)C4)CC3)c2)cn2ncc(C#N)c12 [Example 182, (S,E)-6-(1-(1-(1-(4-(3-fluoropyrrolidin-1-yl)but-2-enoyl)azetidine-3-carbonyl)piperidin-4-yl)-1H-pyrazol-4-yl)-4-methoxypyrazolo[1,5-a]pyridine-3-carbonitrile]		0.00202 min⁻¹	40 nM	3 nM	15 nM	3 nM
COc1cc(-c2cnn(C3CCN(C(=O)C4CN(C(=O)/C=C/CN5CC[C@@H](F)C5)C4)CC3)c2)cn2ncc(C#N)c12 [Example 183, (R,E)-6-(1-(1-(1-(4-(3-fluoropyrrolidin-1-yl)but-2-enoyl)azetidine-3-carbonyl)piperidin-4-yl)-1H-pyrazol-4-yl)-4-methoxypyrazolo[1,5-a]pyridine-3-carbonitrile]		0.00259 min⁻¹	46 nM	5 nM	19 nM	4 nM
COc1cc(-c2cnn(C3CCN(C(=O)C4CN(C(=O)/C=C/CN5CCOCC5)C4)CC3)c2)cn2ncc(C#N)c12 [Example 184, (E)-4-methoxy-6-(1-(1-(1-(4-morpholinobut-2-enoyl)azetidine-3-carbonyl)piperidin-4-yl)-1H-pyrazol-4-yl)pyrazolo[1,5-a]pyridine-3-carbonitrile]		0.00043 min⁻¹	52 nM	6 nM	20 nM	4 nM
